Experimental data reported in paper PMC6630718, “Discovery of Novel UV-Filters with Favorable Safety Profiles in the 5-Arylideneimidazolidine-2,4-dione Derivatives Group” (Molecules, 2019).

Assays:
[1] = Photostability in macrogol formulations on PMMA plates (solar light simulator); type: physicochemical
Method: After irradiation of thin layer of formulations applied on PMMA plates, their photoprotective parameters were determined and compared with the pre-irradiation results. The study gives an overview on functional photostability of the tested compounds. It is an important test, because the photostability of some compounds in low concentrated solutions may meaningfully differ from results obtained for higher concentrations used in sunscreen products. […] In the present study both UVB and UVA-absorbers were tested, so the changes in SPFin vitro, UVA PF and AUC after irradiation are taken into account as a measure of photostability.
(§1) The photostability evaluation of compounds was performed both in methanol solutions and in macrogol formulations. Irradiation of samples according to previous studies was conducted for 1 h at 500 W/m^2 (cumulative dose of ultraviolet radiation 218 kJ/m^2) with solar light simulator (Suntest CPS+, Atlas, Linsengericht, Germany) equipped with an optical filter cutting off wavelengths shorter than 290 nm and IR-block filter to neutralize thermal effects. The UV absorption spectrum of the samples were analysed post-irradiation and compared with pre-irradiation results. UPLC-MS/MS analyses were also performed.
(§2) Methanol solutions were tested at concentration 25 or 50 µM in quartz cuvettes with the PTFE stopper to prevent evaporation or leaking of the solvent. Macrogol formulations (2% w/w) were tested on PMMA plates (1.3 mg/cm^2). After post-irradiation measure of UV absorption, exposed and unexposed plates were washed with 5 mL of methanol, then mixtures were filtered and analysed by UPLC-MS/MS. All analyses were performed in duplicates.

[2] = In vitro photoprotection study of 2% (w/w) macrogol formulations on PMMA plates
From the text: (§3) The composition of formulations and concentration of tested compounds were based on their limited solubility. N-monosubstituted compounds 2a–2e were insoluble at desirable concentrations in the typical solvents used in cosmetic formulations such as alcohols, triacetin, surfactants, and co-surfactants. To dissolve compounds 2a and 2b before incorporation to the formulation DMSO: Tween 20 (1:9 w/w) was used, for less soluble 2c–2e it was necessary to use DMSO alone as solvent. […] Thus the detailed composition of the formulations is as follows: F1–Tween 20 43.2%, PEG-400 25%, PEG-1500 25%, Triacetin 4.8%, tested compound 2%; F2–Tween 20 43.2%, PEG-400 25%, PEG-1500 25%, DMSO 4.8%, tested compound 2%; F3–PEG-400 25%, PEG-1500 25%, DMSO 48%, tested compound 2%. Considering the disadvantages of currently reported macrogol formulations and the low concentration achieved for the tested compounds (2%), we plan to work on cosmetic emulsions containing the most promising derivatives at higher concentrations as well as required excipients including preservatives, antioxidants, etc. This research will be carried out in the near future.
Tested compounds and commercial UV filters as reference standards were incorporated to a neutral macrogel formulation in the concentration of 2%. Prior to the incorporation, compounds 3a–3e and 4f–4h and reference UV-filters were dissolved in a triacetin:Tween 20 (1:9) solvent system. For compounds 2a–2e it was necessary to use DMSO. The final composition of the macrogol formulations is presented in the photoprotective activity section.
In vitro photoprotection study was performed according to EN ISO 24443:2012 [71] with slight modifications. Formulation with tested compound (32.5 mg) was applied on a polymethylmethacrylate plate (PMMA) with the application area 25 cm^2 and 5 µm roughness value to simulate the skin surface (Schonberg GmbH, Hamburg, Germany). As a reference a PMMA plate treated with approximately 15 µL of glycerin was used. Measurements were carried out by reflectance spectrophotometry with SPF-290AS Analyser (Solar Light Company, Glenside, PA, USA) equipped with integrating sphere controlled by WinSPF version X.X. software. For each sample two plates were prepared, absorbance measures were performed on 6 different positions of the plate from 290 to 400 nm with 1 nm steps. The results were expressed as an average of data from 12 scans.

[3] = Solubility in cosmetic solvents / macrogol formulations; type: physicochemical; details: typical cosmetic solvents / formulations used
From the text: as §3

[4] = Photostability in methanol solutions (solar light simulator); type: physicochemical; parameters: λmax pre-irradiation: unit not given beside the values; details: methanol solution; for % of initial AUC post-irradiation / λmax post-irradiation: 1h irradiation at 500 W/m2
Method: as §1, §2

[5] = Ultraviolet spectroscopy in methanol solutions; type: physicochemical; details: for Absorption Range: scan range 290–400 nm
Method: Spectra with a scan range of 290–400 nm were recorded in 50 or 25 μM methanol solutions, in 1 cm path length, 1.5 mL quartz cuvettes on a U-2800 double beam spectrophotometer (Hitachi, Tokyo, Japan) controlled by UV Solution version 2.2 software. The molar extinction coefficient at maximum absorption (εmax) of tested compounds was determined in methanol as the slope of the linear regression of absorbance vs. concentration of tested compound (from 10 to 50 μM or 2.5 to 30 μM).

[6] = In vitro stability in mouse liver microsomes; type: in vitro ADME; details: mouse liver microsomes; for half-life at 20 µM / microsomal CLint at 20 µM: mouse; for half-life at 20 µM: pH 7.4, mouse liver microsomes 0.8 mg/mL, 20 µM compound, NADPH-regenerating system, 37 °C, read-out: t ½; for microsomal CLint at 20 µM: pH 7.4, mouse liver microsomes, calculated from t1/2
Method: Mouse liver microsomes (MLMs) were used to investigate the phase I metabolism of selected compounds (2c, 2d, 3b, 4g, 5a) and the reference substance BP-2. Samples composed of test compound (20 µM), MLMs (0.8 mg/mL) and potassium phosphate buffer (100 mM, pH 7.4) were preincubated prior to addition of NADPH-regenerating system. NADPH-regenerating system contained NADP, glucose-6-phosphate, glucose-6-phosphate dehydrogenase and potassium phosphate buffer (100 mM, pH 7.4). Control incubations were performed in the absence of the NADPH-regenerating system and in case of esters (2c, 2d, 3b and 4g) without the mouse liver microsomes solution to determine spontaneous hydrolysis. Incubations were conducted at 37 °C for at least 15 min up to 60 min. The reactions were stopped by the addition of 250 μL ice-cold methanol containing internal standard PTX (20 μM). The mixture was then centrifuged. Supernatant analysis was performed using UPLC/MS (Waters Corporation). The assays were repeated two times. The in vitro half times (t1/2) for test compounds were determined from the slope of the linear regression of ln % parent compound remaining versus incubation time. The calculated t1/2 was incorporated into the following equation to obtain intrinsic clearance: (Clint) = (volume of incubation [µL]/ protein in the incubation [mg]) × 0.693 / t1/2 [74].

[7] = Neurocytotoxicity, MTT assay; type: cell-based; details: human, SH-SY5Y neuroblastoma cells, highest concentration (50 µM), read-out: cell viability (% of control)
Method: For […] assays a human neuroblastoma cell line—SH-SY5Y (CRL-2266™, ATCC) and a human hepatocellular carcinoma cell line–HepG2, respectively have been used. Cells were seeded on 96-well plates at an initial density of 10,000 cells per well. Cells were cultured in standard conditions for 24 h and then study compounds were administrated at different concentrations (10–50 μM) for another 24 h. After incubation time cells viability was measured with MTT assay. For this purpose culture medium has been replaced for the fresh one and MTT reagent (3-(4,5-dimethylthiazol-2-yl)-2,5-diphenyltetrazolium bromide) has been added at the concentration 0.5 mg/mL. Cells were incubated with MTT reagent at 37 °C for 4 h. Then formazan crystals have been dissolved in DMSO solution and the absorbance has been measured at 570 nm. Experiments were conducted in triplicates. Values represent mean percent of viability (in the percent of control).

[8] = MTT cytotoxicity, skin panel model (melanocytes); type: cell-based; details: Primary Epidermal Melanocytes (PCS-200-013, ATCC), human primary dermal melanocytes, highest tested concentration (50 µM), read-out: cell viability (% of control)
Method: Primary Epidermal Melanocytes were cultured in Dermal Cell Basal Medium (ATCC) supplemented with Adult Melanocyte Growth Kit Components (ATCC), HaCaT and BJ cells were cultured in Dulbecco’s modified Eagle’s medium (DMEM; New York, NY, USA) and supplemented with 10% fetal bovine serum (FBS; Gibco, New York, NY, USA). Cell maintenance was performed in a humidified incubator at 37 °C with 5% CO2. Cells were passage when the culture has reached approximately 80 to 90% confluence. Cells were seeded at density of 6 × 10^3 on 96-well plates. Following overnight culture, the cells were then treated with increasing doses of compounds and incubated for 24 h. Following cell exposure to each drug for 24 h, 10 µL MTT reagent (Sigma Aldrich, Darmstadt, Germany) was added to each well. After 4 hours incubation (37 °C, 5% CO2), the medium was aspirated and the formazan produced in the cells appeared as dark crystals in the bottom of the wells. Next, DMSO (dissolving solution) was added to each wells. Then the optical density (OD) of solution was determined at 570 nm on micro plate reader (Spectra iD3 Max, Molecular Devices; San Jose, CA, USA). Viability (% of control) was determined by dividing A570 of experimental wells by of A570 of control wells × 100%.

[9] = after 1 h irradiation at 500 W/m^2, formulation F2 (DMSO 4.8%)
[10] = after 1 h irradiation at 500 W/m^2, formulation F3 (DMSO 48%)
[11] = 2% (w/w) macrogol formulation F2 (DMSO 4.8%)
[12] = 2% (w/w) macrogol formulation F3 (DMSO 48%)
[13] = after 1 h irradiation at 500 W/m^2, formulation F1
[14] = 2% (w/w) macrogol formulation F1 (Triacetin 4.8%)

% of Initial AUC [1, 10] [%]	% of Initial SPFin vitro [1, 10] [%]	% of Initial UVA PF [1, 10] [%]	λmax pre-irradiation [4]	% of initial AUC post-irradiation [4] [%]	λmax post-irradiation [4]	melting point [°C]	εmax [5] [M⁻¹ cm⁻¹]	λmax [5] [nm]	Absorption Range [5]	Probable Transformation [6]	half-life at 20 µM [6] [min]	microsomal CLint at 20 µM [6] [µL/min/mg]	Structure (SMILES)	SPFin vitro [2, 12]	UVA PF [2, 12]	UVA/UVB Ratio [2, 12]	λc (critical wavelength) [2, 12] [nm]	also measured
46.72	33.25	37.87	316	70.45	317	169 to 171	28460	316	290–345 nm	–	–	–	CCOC(=O)CN1C(=O)N/C(=C\c2ccccc2)C1=O [Compound 2a, Ethyl (Z)-2-(4-benzylidene-2,5-dioxoimidazolidin-1-yl)acetate]	–	–	–	–	improvement of the functional photostability ([1]; DMSO in formulation reduced from 48 to 4.8%): 31.1%; % of Initial AUC [1, 9]: 62.42%; % of Initial SPFin vitro [1, 9]: 55.49%; % of Initial UVA PF [1, 9]: 68.96%; percentage of photoisomer formation ([1]; two formulations differing in the content of DMSO (48 and 4.8%), which value belongs to which is not given): 48%; SPFin vitro [2, 11]: 4.79 ± 0.02; UVA PF [2, 11]: 2.40 ± 0.01; UVA/UVB Ratio [2, 11]: 0.35 ± 0.00; λc (critical wavelength) [2, 11]: 339 nm; solubility (in words) [3]: only slightly soluble; decrease of AUC after irradiation [4]: ~30%; shift of λmax after irradiation [4]: 1 nm
34.13	44.37	35.83	336	96.89	344	181 to 182	35610	336	290–376 nm	O-dealkylation	33	52	CCOC(=O)CN1C(=O)N/C(=C\c2ccc(OCC)cc2)C1=O [Compound 2c, Ethyl (Z)-2-(4-(4-ethoxybenzylidene)-2,5-dioxoimidazolidin-1-yl)acetate]	3.16 ± 0.05	4.68 ± 0.02	1.36 ± 0.01	367	–
58.87	75.69	51.45	349	100.96	354	197 to 198	30700	349	290–394 nm	O-dealkylation	15	59	CCOC(=O)CN1C(=O)N/C(=C\c2ccc(OC)cc2OC)C1=O [Compound 2d, Ethyl (Z)-2-(4-(2,4-dimethoxybenzylidene)-2,5-dioxoimidazolidin-1-yl)acetate]	2.00 ± 0.11	4.48 ± 0.38	2.59 ± 0.09	386	decrease of tested parameters (SPFin vitro, UVA PF, AUC) after irradiation ([1]; formulation with DMSO 48% (F3), extreme values): 41.1%
41.99	56.00	38.99	344	97.8	351	198 to 200	30740	344	290–381 nm	O-dealkylation	41	21	CCOC(=O)CN1C(=O)N/C(=C\c2ccc(OC)c(OC)c2)C1=O [Compound 2e, Ethyl (Z)-2-(4-(3,4-dimethoxybenzylidene)-2,5-dioxoimidazolidin-1-yl)acetate]	2.50 ± 0.08	4.77 ± 0.24	1.95 ± 0.02	379	–
–	–	–	299	87.76	303	–	25550	299	290–332 nm	–	–	–	Cc1ccc(/C=C2/C(=O)C3(C)CCC2C3(C)C)cc1 (centres unmarked) [Compound 4-MBC, 4-methylbenzylidene camphor, reference compound]	–	–	–	–	viability at 24 h, 50 µM [7]: < 31%; % of Initial AUC [1, 13]: 90.89%; % of Initial SPFin vitro [1, 13]: 91.05%; % of Initial UVA PF [1, 13]: 101.39%; UVA PF [2, 14]: 1.08 ± 0.1; UVA/UVB Ratio [2, 14]: 0.00 ± 0.00; λc (critical wavelength) [2, 14]: 316 nm; SPFin vitro ([2]; 2% (w/w) macrogol formulation F1 (Tween 20, PEG-400, PEG-1500, Triacetin 4.8%)): 5.59 ± 0.27; viability at 24 h, 50 µM [8]: < 36%
